Data taken from ChEMBL document CHEMBL5143624, “WCK 1152, WCK 1153: Discovery and structure activity relationship for the treatment of resistant pneumococcal and staphylococcal respiratory infections” (Bioorg Med Chem Lett, 2022).
In brackets after ≈: the same amount, converted by molar mass.

How the values were obtained:
Staphylococcus aureus [1] = assay: Antibacterial activity against methicillin resistant Staphylococcus aureus 032 assessed as inhibition of bacterial growth incubated for 18 hrs by CLSI based serial agar dilution method; type: functional
Staphylococcus aureus [2] = assay: Antibacterial activity against methicillin resistant Staphylococcus aureus assessed as inhibition of bacterial growth incubated for 18 hrs by CLSI based serial agar dilution method; type: functional
Streptococcus pneumoniae [3] = assay: Antibacterial activity against beta-lactams, macrolide and fluoroquinolone resistant Streptococcus pneumoniae 718 assessed as inhibition of bacterial growth incubated for 18 hrs by CLSI based serial agar dilution method; type: functional
Streptococcus pneumoniae [4] = assay: Antibacterial activity against beta-lactams, macrolide and fluoroquinolone resistant Streptococcus pneumoniae 718 infected in po dosed Swiss mouse septicemia model assessed as protective dose administered on 1 and 5 hrs post infection and measured on day 7; type: functional, organism-based
Staphylococcus aureus [5] = assay: Antibacterial activity against Staphylococcus aureus […] assessed as inhibition of bacterial growth incubated for 18 hrs by CLSI based serial agar dilution method; type: functional
Staphylococcus aureus [6] = assay: Antibacterial activity against methicillin resistant Staphylococcus aureus 5076 harbouring DNA gyrase and topoisomerase IV mutant and efflux pump assessed as inhibition of bacterial growth incubated for 18 hrs in presence of efflux inhibitor by CLSI based serial agar dilution method; type: functional
Streptococcus pneumoniae [7] = assay: Antibacterial activity against Streptococcus pneumoniae assessed as inhibition of bacterial growth incubated for 18 hrs by CLSI based serial agar dilution method; type: functional
Streptococcus pneumoniae [8] = assay: Antibacterial activity against Streptococcus pneumoniae 5844 harbouring moxifloxacin resistant DNA gyrase and topoisomerase IV mutant assessed as inhibition of bacterial growth incubated for 18 hrs by CLSI based serial agar dilution method; type: functional; conditions: Streptococcus pneumoniae, 5844, 18 h
Streptococcus pneumoniae [9] = assay: Antibacterial activity against fluoroquinolone efflux positive Streptococcus pneumoniae 706 assessed as inhibition of bacterial growth incubated for 18 hrs by CLSI based serial agar dilution method; type: functional
Staphylococcus aureus [10] = assay: Antibacterial activity against methicillin resistant Staphylococcus aureus 5076 assessed as inhibition of bacterial growth incubated for 18 hrs by CLSI based serial agar dilution method; type: functional
[11] = Mutagenicity in Swiss mouse assessed as chromosomal aberration in bone marrow cells at 400 mg/kg, po measured after 24 hrs relative to control; type: toxicity, organism-based; conditions: in vivo
[12] = Induction of drug resistance in methicillin resistant Staphylococcus aureus assessed as increase in MIC measured after 10 passages (reference value: 0.4 ug/ml); type: functional
[13] = Staphylococcus aureus, 032, 18 h, read-out: MIC
[14] = Staphylococcus aureus, read-out: MIC
[15] = Streptococcus pneumoniae, 718, 18 h, read-out: MIC
[16] = Streptococcus pneumoniae, 18 h, read-out: MIC

COc1c(N2CC[C@H](N)C(C)(C)C2)c(F)cc2c(=O)c(C(=O)O)cn(C3CC3)c12
MIC (Staphylococcus aureus [1]; [13]): 0.8 µg/mL (≈ 1.98 µM) | MIC (Staphylococcus aureus [2]; [14]): 0.05 µg/mL (≈ 0.124 µM) | MIC (Streptococcus pneumoniae [3]; [15]): 0.8 µg/mL (≈ 1.98 µM) | EC50 (Streptococcus pneumoniae [4]): 50 mg/kg | MIC (Staphylococcus aureus [5]): 0.05 µg/mL (≈ 0.124 µM) | MIC (Staphylococcus aureus [6]): 1.56 µg/mL

CONC1CCN(c2c(F)cc3c(=O)c(C(=O)O)cn(C4CC4)c3c2OC)CC1(C)C (configuration not stated)
MIC (Streptococcus pneumoniae [7]; [16]): 0.8 µg/mL (≈ 1.85 µM) | MIC (Streptococcus pneumoniae [8]): > 6.25 µg/mL | MIC (Staphylococcus aureus [2]; [14]): 0.1 µg/mL (≈ 0.231 µM) | MIC (Streptococcus pneumoniae [9]): 0.8 µg/mL (≈ 1.85 µM)

CCC1CN(c2c(F)cc3c(=O)c(C(=O)O)cn(C4CC4)c3c2OC)CCC1NC (configuration not stated)
MIC (Streptococcus pneumoniae [7]; [16]): 1.56 µg/mL (≈ 3.74 µM) | MIC (Staphylococcus aureus [2]; [14]): 0.2 µg/mL (≈ 0.479 µM)

CC1(C)CN(c2cc3c(cc2F)c(=O)c(C(=O)O)cn3C2CC2)CCC1N (configuration not stated)
MIC (Streptococcus pneumoniae [7]; [16]): 0.8 µg/mL (≈ 2.14 µM) | MIC (Staphylococcus aureus [2]; [14]): 12.5 µg/mL (≈ 33.5 µM)

COc1c(N2CCC(N(C)C)C(C)(C)C2)c(F)cc2c(=O)c(C(=O)O)cn(C3CC3)c12 (configuration not stated)
MIC (Streptococcus pneumoniae [7]; [16]): 0.4 µg/mL (≈ 0.927 µM) | MIC (Staphylococcus aureus [2]; [14]): 0.2 µg/mL (≈ 0.463 µM)

COc1c(N2CCC(N)C(C)C2)c(F)cc2c(=O)c(C(=O)O)cn(C3CC3)c12 (configuration not stated)
MIC (Streptococcus pneumoniae [7]; [16]): 0.2 µg/mL (≈ 0.514 µM) | MIC (Staphylococcus aureus [2]; [14]): 0.05 µg/mL (≈ 0.128 µM)

CCNC1CCN(c2c(F)cc3c(=O)c(C(=O)O)cn(C4CC4)c3c2OC)CC1(C)C (configuration not stated)
MIC (Streptococcus pneumoniae [7]; [16]): 1.56 µg/mL (≈ 3.62 µM) | MIC (Staphylococcus aureus [2]; [14]): 0.2 µg/mL (≈ 0.463 µM) | MIC (Streptococcus pneumoniae [9]): 1.56 µg/mL (≈ 3.62 µM)

COc1c(N2CC(C)C(N)C(C)C2)c(F)cc2c(=O)c(C(=O)O)cn(C3CC3)c12 (cis isomer)
MIC (Staphylococcus aureus [2]): 0.1 µg/mL (≈ 0.248 µM)

Cc1c(N2CCC(N)C(C)C2)c(F)cc2c(=O)c(C(=O)O)cn(C3CC3)c12.Cl (cis isomer)
EC50 (Streptococcus pneumoniae [4]): 30 mg/kg

Cc1c(N2CCC(N)C(C)(C)C2)c(F)cc2c(=O)c(C(=O)O)cn(C3CC3)c12 (racemic)
MIC (Staphylococcus aureus [1]; 18 h): 1.56 µg/mL (≈ 4.03 µM) | MIC (Streptococcus pneumoniae [3]; 18 h): 1.56 µg/mL (≈ 4.03 µM)

Cc1c(N2CCC(N)C(C)(C)C2)c(F)cc2c(=O)c(C(=O)O)cn(C3CC3)c12.Cl (racemic)
EC50 (Streptococcus pneumoniae [4]): 30 mg/kg

Cc1c(N2CCC(O)C(C)(C)C2)c(F)cc2c(=O)c(C(=O)O)cn(C3CC3)c12.Cl (racemic)
MIC (Staphylococcus aureus [1]; [13]): 0.8 µg/mL | MIC (Streptococcus pneumoniae [3]; [15]): 0.8 µg/mL

Cc1c(N2CCC(O)C(C)(C)C2)c(F)cc2c(=O)c(C(=O)O)cn(C3CC3)c12 (single isomer, unassigned; (+))
MIC (Staphylococcus aureus [1]; [13]): 0.2 µg/mL (≈ 0.515 µM) | MIC (Streptococcus pneumoniae [3]; [15]): 0.2 µg/mL (≈ 0.515 µM) | MIC (Staphylococcus aureus [5]): 0.003 µg/mL (≈ 0.00772 µM) | MIC (Staphylococcus aureus [10]): 0.2 µg/mL (≈ 0.515 µM) | MIC (Staphylococcus aureus [6]): 0.2 µg/mL

Cc1c(N2CCC(N)C(C)(C)C2)c(F)cc2c(=O)c(C(=O)O)cn(C3CC3)c12 (single isomer, unassigned; (-))
MIC (Staphylococcus aureus [1]; 18 h): 0.4 µg/mL (≈ 1.03 µM) | MIC (Streptococcus pneumoniae [3]; 18 h): 0.4 µg/mL (≈ 1.03 µM) | EC50 (Streptococcus pneumoniae [4]): 20 mg/kg | MIC (Staphylococcus aureus [10]): 0.8 µg/mL (≈ 2.06 µM) | MIC (Staphylococcus aureus [6]): 0.8 µg/mL

COc1c(N2CCC(N)C(C)(C)C2)c(F)cc2c(=O)c(C(=O)O)cn(C3CC3)c12 (single isomer, unassigned; (-))
Activity [11]: 3.8%

COc1c(N2CC(C)C(N)C(C)C2)c(F)cc2c(=O)c(C(=O)O)cn(C3CC3)c12 (stereo in doubt)
MIC (Streptococcus pneumoniae [7]; [16]): 0.1 µg/mL (≈ 0.248 µM) | MIC (Staphylococcus aureus [2]; [14]): 0.1 µg/mL (≈ 0.248 µM)

CCNC1C(C)CN(c2c(F)cc3c(=O)c(C(=O)O)cn(C4CC4)c3c2OC)CC1C (stereo in doubt)
MIC (Streptococcus pneumoniae [7]): 1.56 µg/mL (≈ 3.62 µM) | MIC (Staphylococcus aureus [2]): 0.2 µg/mL (≈ 0.463 µM)

Cc1c(N2CCC(O)C(C)C2)c(F)cc2c(=O)c(C(=O)O)cn(C3CC3)c12 (stereo in doubt; form 1)
MIC (Staphylococcus aureus [1]; [13]): 0.2 µg/mL (≈ 0.534 µM) | MIC (Streptococcus pneumoniae [3]; [15]): 0.2 µg/mL (≈ 0.534 µM)

COc1c(N2CCC(N)C(C)(C)C2)c(F)cc2c(=O)c(C(=O)O)cn(C3CC3)c12 (stereo in doubt; form 1)
MIC (Staphylococcus aureus [1]; [13]): 0.6 µg/mL (≈ 1.49 µM) | MIC (Staphylococcus aureus [2]; [14]): 0.05 µg/mL (≈ 0.124 µM) | EC50 (Streptococcus pneumoniae [4]): 30 mg/kg | Activity [11]: 5.83% | MIC (Staphylococcus aureus [6]): 1.56 µg/mL

Cc1c(N2CCC(O)C(C)C2)c(F)cc2c(=O)c(C(=O)O)cn(C3CC3)c12 (stereo in doubt; form 2)
MIC (Staphylococcus aureus [1]): 0.2 µg/mL (≈ 0.534 µM) | MIC (Streptococcus pneumoniae [3]): 0.2 µg/mL (≈ 0.534 µM)

COc1c(N2CCC(N)C(C)(C)C2)c(F)cc2c(=O)c(C(=O)O)cn(C3CC3)c12 (stereo in doubt; form 2)
Activity [11]: 12%

COc1c(N2CC(C)C(N)C(C)C2)c(F)cc2c(=O)c(C(=O)O)cn(C3CC3)c12 (trans isomer)
MIC (Streptococcus pneumoniae [7]; 18 h): 0.2 µg/mL (≈ 0.496 µM) | MIC (Staphylococcus aureus [2]): 0.05 µg/mL (≈ 0.124 µM)

CCNC1C(C)CN(c2c(F)cc3c(=O)c(C(=O)O)cn(C4CC4)c3c2OC)CC1C (trans isomer)
MIC (Streptococcus pneumoniae [7]; [16]): 1.56 µg/mL (≈ 3.62 µM) | MIC (Staphylococcus aureus [2]): 0.012 µg/mL (≈ 0.0278 µM)

Cc1c(N2CCC(N)C(C)C2)c(F)cc2c(=O)c(C(=O)O)cn(C3CC3)c12 (trans isomer)
MIC (Staphylococcus aureus [1]; [13]): 0.8 µg/mL (≈ 2.14 µM)

COc1c(N2CCNC(C)C2)c(F)cc2c(=O)c(C(=O)O)cn(C3CC3)c12 (configuration not stated) [GATIFLOXACIN]
EC50 (Streptococcus pneumoniae [4]): > 100 mg/kg

C[C@H]1COc2c(N3CCN(C)CC3)c(F)cc3c(=O)c(C(=O)O)cn1c23.C[C@H]1COc2c(N3CCN(C)CC3)c(F)cc3c(=O)c(C(=O)O)cn1c23.O [LEVOFLOXACIN]
MIC (Staphylococcus aureus [1]; [13]): 6.25 µg/mL | EC50 (Streptococcus pneumoniae [4]): > 100 mg/kg

C[C@H]1CCc2c(N3CCC(O)CC3)c(F)cc3c(=O)c(C(=O)O)cn1c23 [LEVONADIFLOXACIN]
MIC (Streptococcus pneumoniae [7]; [16]): 0.4 µg/mL (≈ 1.11 µM) | MIC (Staphylococcus aureus [2]; [14]): 0.4 µg/mL (≈ 1.11 µM)

COc1c(N2C[C@@H]3CCCN[C@@H]3C2)c(F)cc2c(=O)c(C(=O)O)cn(C3CC3)c12 [MOXIFLOXACIN]
MIC [12]: 6.25 µg/mL | EC50 (Streptococcus pneumoniae [4]): > 100 mg/kg

CC1COc2c(N3CCN(C)CC3)c(F)cc3c(=O)c(C(=O)O)cn1c23 (configuration not stated) [OFLOXACIN]
MIC (Streptococcus pneumoniae [7]; [16]): 0.4 µg/mL (≈ 1.11 µM) | MIC (Staphylococcus aureus [2]; [14]): 0.4 µg/mL (≈ 1.11 µM)
